Read-outs that look alike come from different tables or passages of the source.
Assays:
[1] = system: POR-R cell line (POR-overexpressing HCT-116); experiment: Anti-proliferative IC50 assay (SRB); type: cell-based, human; settings: for IC50: Homo sapiens, HCT-116, 4 h exposure
Description: (§1) The HCT-116 cell line was purchased from the American Type Culture Collection (Manassas, VA). A POR-overexpressing clone (POR-R) was generated by transfecting the parental cell line with a pBRP expression vector encoding an N-terminal truncated soluble version of the human POR gene ([Foehrenbacher et al., 2013a]; [Guise et al., 2020]). Ectopic expression is driven by the human cytomegalovirus (CMV) major immediate-early promoter. Downstream of POR is a human elongation factor-1 alpha (EF-1 alpha) promoter, which drives expression of mRuby and the puromycin resistance gene pac (puromycin N-acetyltransferase). A POR-null clone (PORG-ko) was generated as previously described ([Su et al., 2013]). POR-null clones were then transfected with a pEGFP-N1 plasmid encoding enhanced green fluorescent protein (EGFP) and geneticin resistance to permit identification upon co-culture ([Hong et al., 2018b]). Cell lines were maintained by weekly subculture in T-flasks containing alpha minimal essential medium (αMEM) with 5% foetal bovine serum (FBS) for a maximum of 24 passages or 90 days (whichever came first). The culture medium was further supplemented with 1 mg/ml geneticin or 2 µM puromycin for the routine maintenance of the POR-null and POR-overexpressing clones respectively. All cultures were re-established from STR-authenticated, mycoplasma negative frozen stocks.
(§2) Cells (700–1,000 per well) were seeded with 100 µl culture medium into 96-well plates and left to attach for 2 h in a humidified 37°C incubator. Compounds were prepared in culture medium and serially diluted (1:3) in the well volume. Plates were returned to a humidified 37°C incubator for the duration of the drug exposure (4 h). Aerobic experiments were performed under standard tissue culture conditions (21% O2), and the anoxic experiments were performed in parallel in a 5% H2/Pd catalyst anaerobic chamber (Shellab Bactron, Sheldon manufacturing Inc., Cornelius, OR) using pre-equilibrated media and plasticware. All anoxia experiments were conducted using a catalyst-scrubbed anaerobic chamber, unless otherwise specified, with gas oxygen measurements of <1 ppm O2. Cells were then washed three times and left to grow for 96 h before cell density determination using a sulforhodamine B (SRB) assay ([Vichai and Kirtikara, 2006]). To this end, the cells were fixed by layering 50 µl of trichloroacetic acid (40% w/v in MilliQ water) on top of the culture media (150 µl) in each well for 1 h at 4°C. Plates were rinsed under running tap water and stained with 50 µl of SRB (0.4% w/v in MilliQ water containing 1% v/v acetic acid) for 30 min at room temperature. Plates were rapidly destained by rinsing three times in tap water containing 1% (v/v) acetic acid. The stain was solubilized by adding 100 µl of 10 mM unbuffered Tris base to each well with gentle rocking for 1 h. Plates were read on a Biotek ELx808 Absorbance Microplate Reader at 490 nm using KC4 software. The IC50 value (concentration required to reduce staining to 50% of the untreated control on the same plate) for each compound was determined by interpolation using a 4-parameter logistic regression model.

[2] = system: PORko-G cell line (POR-knockout HCT-116); experiment: Anti-proliferative IC50 assay (SRB); type: cell-based, human; settings: for IC50: Homo sapiens, HCT-116, 4 h exposure
Description: as §1, §2

HCT-116 WT cell line [3] = experiment: Anti-proliferative IC50 assay (SRB); type: cell-based, human; settings: for IC50: Homo sapiens, 4 h exposure
Description: as §1, §2

HCT-116 WT cell line [4] = experiment: Monolayer clonogenic assay; type: cell-based; settings: Homo sapiens; HCT-116 WT monolayer; 4 h exposure, <1 ppm O2; read-out: Clonogenic IC50 under anoxia
Procedure: Cells (4.8 x 10^5 cells) were seeded with 2 ml culture medium into 6-well plates and left to attach for 2 h in a humidified 37°C incubator. Compounds were then prepared in culture medium and added in a 500 µl volume to each well. Plates were returned to a humidified 37°C incubator for the duration of the drug exposure (4 h). Aerobic and anoxic experiments were performed as described above. Plates were then removed from the anaerobic chamber and processed alongside the aerobic cultures. Cells were detached from monolayer by trypsinisation and plated at serial dilutions in 6-well plates. Cells were left to grow in a standard 37°C incubator for 10 days until the controls formed discrete colonies comprised of at least 50 cells. Colonies were visualized by staining with methylene blue (2 g/L in 50% aqueous ethanol) for 30 min. The number of colonies with at least 50 cells was manually counted to determine the plating efficiency. The surviving fraction was determined as the ratio of plating efficiency of treated cells to that of the controls.

[5] = system: spheroid co-cultures of POR-R activator and PORko-G target cells; experiment: Spheroid growth delay assay; type: cell-based; settings: Homo sapiens, 4 h, 4 h exposure, anoxic, read-out: IC50 for inhibition of spheroid growth
Procedure: Spheroid cultures were established by seeding 3 x 10^3 cells with 100 µl medium into ultra-low attachment, round bottom 96-well plates (Corning Inc, Corning, NY). Plates were briefly centrifuged (200 g, 5 min) to facilitate cell aggregation and grown in a standard incubator (37°C, 21% O2, 5% CO2) for 4 days before experiments. The culture medium was then aspirated, and the established spheroids taken into a H2/Pd-catalyst anaerobic chamber. Spheroids were washed three times with anoxia pre-equilibrated medium and left to settle for 1 h in a humidified 37°C incubator. Spheroids were removed from the anaerobic chamber after a 4 h drug exposure and washed three times with fresh culture medium. The growth of representative spheroids was monitored for 10 days using a published method of image analysis for volume determination ([Mao et al., 2018]). The remainder were enzymatically dissociated and plated at serial dilutions in 6-well plates containing 2 µM puromycin or 1 mg/ml geneticin for positive selection of POR-R and PORko-G cells, respectively. Colonies were visualized after 10 days of drug-free proliferation by staining with methylene blue (2 g/L in 50% aqueous ethanol) for 30 min. The number of colonies with at least 50 cells was manually counted to determine the plating efficiency. The surviving fraction was determined as the ratio of the plating efficiency of treated cells to that of the controls.

[6] = anoxic <1 ppm O2, 96 h drug-free proliferation, read-out: Anoxic IC50 (anti-proliferative)
[7] = normoxic 21% O2, 96 h drug-free proliferation, read-out: Aerobic IC50 (anti-proliferative)

SMILES: CCN1CCN(C(=O)c2cc(N(CCBr)CCOS(C)(=O)=O)c(S(C)(=O)=O)cc2[N+](=O)[O-])CC1 [CP-506, 2-[(2-bromoethyl)-5-[(4-ethyl-1-piperazinyl)carbonyl]-2-(methylsulfonyl)-4-nitroanilino]ethyl methanesulfonate]
- IC50 [1, 6]: 2.5 ± 0.3 µM
- IC50 [1, 7]: 120 ± 13 µM
- Fold lower IC50 under anoxic vs aerobic conditions ([1]; anti-proliferative assay): 48.6 fold
- IC50 ([2]; PORko-G, anoxic <1 ppm O2, 96 h drug-free proliferation, read-out: Anoxic IC50 (anti-proliferative)): 33.1 ± 5.6 µM
- IC50 ([2]; PORko-G, normoxic 21% O2, 96 h drug-free proliferation, read-out: Aerobic IC50 (anti-proliferative)): 240 ± 26 µM
- Fold lower IC50 under anoxic vs aerobic conditions ([2]; PORko-G, anti-proliferative assay): 7.3 fold
- Differential in anoxic sensitivity between PORko-G and POR-R cell lines ([2]; anti-proliferative assay, anoxia): 13 fold
- IC50 (HCT-116 WT cell line [3]; [6]): 12.8 ± 3.7 µM
- IC50 (HCT-116 WT cell line [3]; [7]): 257 ± 37 µM
- Fold lower IC50 under anoxic vs aerobic conditions (HCT-116 WT cell line [3]; anti-proliferative assay): 20.1 fold
- IC50 (HCT-116 WT cell line [4]): 7.4 ± 0.5 µM
- IC50 ([5]; 0% activator cells): > 40 µM
- IC50 ([5]; 10% activator cells): 13.6 µM
- IC50 ([5]; 50% activator cells): 5.6 µM
- IC50 ([5]; 100% activator cells): 2.4 µM

— publication PMC8861431, “Tissue Pharmacokinetic Properties and Bystander Potential of Hypoxia-Activated Prodrug CP-506 by Agent-Based Modelling” (Frontiers in Pharmacology, 2022)
